Patent publication US9603896B2, “Peptide compounds and methods of production and use thereof” (priority 2012, dated 2017)
Ends that are not written are not given here.

Experiments:
[1] = system: Acinetobacter baumannii ATCC® BAA-747™; experiment: In vitro bactericidal assay (CFU remaining, log reduction); format: cell-based; conditions: for bactericidal activity against Acinetobacter baumannii / reduction of CFU/ml: 60 minutes; for bactericidal activity against Acinetobacter baumannii: peptides up to 25 μM, gentamicin 4 μg/ml; for reduction of CFU/ml: highest peptide concentrations (25 μM)
Description: The three peptide compounds BCC01-5RMP (SEQ ID NO:21), BCC02-5RMP (SEQ ID NO:22), and BCC03-5RMP (SEQ ID NO:23) were assayed for in vitro bactericidal activity against Pseudomonas aeruginosa, Escherichia coli, Salmonella typhimurium, and Acinetobacter baumannii. The starting inoculum for all experiments was 1×10^6 colony forming units (CFU)/ml. The CFU remaining at the end of 60 to 180 minute incubation was determined, and the data plotted as a log reduction in CFU/ml.
For FIGS. 10-13, in vitro bactericidal assays were performed using a starting inoculum of 1×10^6 CFU/ml of the bacterial suspension. The CFU remaining at the end of the 60-180 minute incubation was determined, and the data was plotted as log reduction in CFU/ml.
In particular, each of the test peptides (CAP37 peptides 120-146WR, 120-146WH, and 95-122 (SEQ ID NOs: 30, 31, and 26, respectively)) was used at 25, 12.5, 6.25, and 3.12 μM. Gentamicin was used at 4 μg/ml. 1×10^6/ml Acinetobacter baumannii ATCC® BAA-747″ or Pseudomonas aeruginosa ATCC® 27853™ (American Type Culture Collection, Manassas, Va.) were incubated with the peptides, negative buffer control (tryptone saline), and positive control gentamicin at pH 5.5 or 7.2. A 60 minute incubation was used for Acinetobacter baumannii ATCC® BAA747™, while a 180 minute incubation was used for Pseudomonas aeruginosa ATCC® 27853™. 50 μl aliquots were plated out on agar plates and incubated overnight. Colony forming units were counted after overnight incubation and CFU/ml calculated.

swine skin = experiment: Swine full thickness excisional dermal wound model; format: in vivo; conditions: for Mean Wound Healing (%): topical 3 mg/ml, 0.20 ml per wound daily; for histology: epidermal resurfacing and maturation vs saline control: day 14 post-wounding; for dermal wound healing vs saline: topically at 3 mg/ml, over 14 days; for Histopathology Results, Mean Angiogenesis / Histopathology Results, Mean Epithelization / Histopathology Results, Mean Granulation / Histopathology Results, Mean Inflammation: wounds harvested day 14, 3 mg/ml topical
Description: In this Example, peptide compounds of the presently disclosed and claimed inventive concept(s) were evaluated as to their activity on the dermal wound healing process in a clinically relevant swine full thickness excisional wound model. Three different peptide formulations (Group B, Peptide 95-122 (SEQ ID NO:26); Group C, Peptide 120-146WH (SEQ ID NO:31); and Group D, Peptide 120-146QH-5RMP (SEQ ID NO:33)) were each evaluated at the same concentration (3 mg/ml). Sterile saline served as the control (Group A).
Full thickness excisional wounds were induced on the dorsum of swine (N=3) using a 1.0 cm biopsy punch. Treatments were administered (0.20 ml) to each wound (N=6 wounds per group), and the wounds were dressed with standard occlusive dressing ([…]™, 3M Corporation, St. Paul, Minn.). Treatments were reapplied daily and dressings changed. Clinical wound healing observations and wound area (2 mm) measurements were performed on days 0, 3, 5, 7, 10, and 14 post-wounding. Wound area (2 mm) data were expressed as percentage (%) of wound healing. Animals were terminated on day 14 with wounds harvested and processed for histological evaluation. […] All peptide formulation treatment groups healed faster with greater rate of closure and re-epithelialization over time, as compared to the saline control (Group A).

[2] = system: P. aeruginosa (ATCC® 27853™); experiment: Pseudomonas keratitis model in the mouse eye; format: in vivo; conditions: topical, doses of 10 and 20 mg/ml
Description: A circular wound was created on the mouse cornea by removing the epithelium and infected with 10^5 colony forming units (CFU) of P. aeruginosa (ATCC® 27853™ (American Type Culture Collection, Manassas, Va.)). Infected wounds were treated with saline (0.9% sodium chloride, vehicle control) or saline containing indicated concentrations of peptide every 15 minutes for 2 hours, then every 30 minutes for 3 hours on the first day. Infected wounds were treated twice on the second day and once on the third day. Mice were killed at 48 hours post-infection, and CFU/eye were quantified. The means were plotted and are representative of 5 to 9 mice per group. Mann Whitney test was performed for each group as compared to the saline control group. *P=0.014.
A circular wound (2 mm) was created on the mouse cornea by removing the epithelium and infecting the wound with 10^5 CFU of P. aeruginosa (ATCC® 27853™ (American Type Culture Collection, Manassas, Va.)). Infected wounds were treated with saline or saline containing indicated concentrations of peptide every 15 minutes for 2 hours, then every 30 minutes for 3 hours on the first day. Infected wounds were treated twice on the second day and once on the third day. Mice were killed at 48 hours post-infection, and the colony forming units per eye (CFU/eye) were quantified. The means are plotted and are representative of 5 to 9 mice per group. Mann Whitney test was performed for each group as compared to the saline control group.
For FIGS. 15-17, in vivo bactericidal activity of the peptides was also investigated using the standard Pseudomonas keratitis model in the mouse eye (FIGS. 15-17). Peptides 120-146QR-5RMP (SEQ ID NO:32), 120-146WH (SEQ ID NO:31), and 120-146WR (SEQ ID NO: 30) were applied topically at doses of 2, 5, 10, and 20 mg/ml to the wounded cornea that had been infected with 10^5 CFU of Pseudomonas aeruginosa. The efficacies of the peptides were compared to treatment with the vehicle control. Mice were euthanized at 48 hours post infection, and the CFU/eye were quantified.

LDREANLTSSVTILPLPLQNATVEAGTR (listed as Homo sapiens) [Peptide 95-122]
bactericidal activity against Acinetobacter baumannii ([1]; pH 5.5): not active | bactericidal activity against Acinetobacter baumannii ([1]; pH 7.2): not active | Mean Wound Healing (%) (swine skin; Day 0): 0.0% | Mean Wound Healing (%) (swine skin; Day 14): 100.0% | histology: epidermal resurfacing and maturation vs saline control (swine skin): greater extent of epidermal resurfacing and maturation of the epidermis | dermal wound healing vs saline (swine skin): accelerate dermal wound healing | Histopathology Results, Mean Angiogenesis (swine skin): 2.3 | Histopathology Results, Mean Epithelization (swine skin): 4.0 | Histopathology Results, Mean Granulation (swine skin): 4.0 | Histopathology Results, Mean Inflammation (swine skin): 0.5

GTRCQVAGWGSWHSGGRLSRFPRFVNV [Peptide 120-146WH]
activity against A. baumannii ([1]; 25 μM): highly active | reduction of CFU/ml ([1]; pH 5.5): ~4 logs | reduction of CFU/ml ([1]; pH 7.2): ~5.5 logs | CFU/eye at 48 hours post infection vs saline [2]: significantly reduced the CFU/eye | Mean Wound Healing (%) (swine skin; Day 0): 0.0% | Mean Wound Healing (%) (swine skin; Day 3): 22.1% | Mean Wound Healing (%) (swine skin; Day 5): 35.9% | Mean Wound Healing (%) (swine skin; Day 7): 59.7% | Mean Wound Healing (%) (swine skin; Day 10): 93.5% | Mean Wound Healing (%) (swine skin; Day 14): 97.5% | histology: epidermal resurfacing and maturation vs saline control (swine skin): greater extent of epidermal resurfacing and maturation of the epidermis | dermal wound healing vs saline (swine skin): accelerate dermal wound healing | Histopathology Results, Mean Angiogenesis (swine skin): 1.7 | Histopathology Results, Mean Epithelization (swine skin): 3.7 | Histopathology Results, Mean Granulation (swine skin): 4.0 | Histopathology Results, Mean Inflammation (swine skin): 0.5
